Read-outs that look alike come from different tables or passages of the source.
System: Hsp90 in HEPG2 lysate
Settings: Human lysate

CC1(C)CC(=O)c2c(C(F)(F)F)nn(-c3ccc(C(N)=O)c(N[C@H]4CC[C@H](O)CC4)c3)c2C1 [SNX]
EC50 (read-out: FP EC50, rounded summary): 0.0401 µM

CCNC(=O)c1noc(-c2cc(C(C)C)c(O)cc2O)c1-c1ccc(CN2CCOCC2)cc1 [AUY9222]
EC50 (refit block, unit inferred): 0.00626 µM

From article PMC6345968, “Structural basis for species-selective targeting of Hsp90 in a pathogenic fungus” (Nature Communications, 2019)
